In patent publication US11091486B2, “Process for the preparation of pyrazolo[1,5-a]pyrimidines and salts thereof” (Array BioPharma Inc., priority 2016, dated 2021):
Values after ≈ are worked out from the molar mass of the structure shown. “Also recorded” adds a separate entry of the source. Read-outs that look alike come from different tables or passages of the source.

Legend:
Type in all cases: physicochemical
[1] = Salt stability studies, 40° C./75% RH for 1 week, XRPD
Experimental: Recovered salts were placed in an oven at 40° C./75% RH for 1 week, and the resultant materials were analyzed by XRPD to determine any changes to form or crystallinity.

[2] = Dynamic vapor sorption (DVS); details: for Hygroscopicity, mass uptake by DVS: at 90% RH; for Crystalline form by XRPD after exposure to DVS humidity conditions: post-DVS XRPD
Experimental: Approximately, 10 mg of sample was placed into a mesh vapor sorption balance pan and loaded into a DVS-1 dynamic vapor sorption balance by Surface Measurement Systems. The sample was subjected to a ramping profile from 40-90% relative humidity (RH) at 10% increments, maintaining the sample at each step until a stable weight had been achieved (99.5% step completion). After completion of the sorption cycle, the sample was dried using the same procedure to 0% RH and then a second sorption cycle back to 40% RH. The weight change during the sorption/desorption cycles were plotted, allowing for the hygroscopic nature of the sample to be determined. XRPD analysis was then carried out on any solid retained.

[3] = Gravimetric vapor sorption (GVS)
Experimental: Approximately 10-20 mg of sample was placed into a mesh vapor sorption balance pan and loaded into an IGASorp Moisture Sorption Analyzer balance by Hiden Analytical. […] After completion of the sorption cycle, the sample was dried using the same procedure to 0% RH, and finally taken back to the starting point of 40% RH. The weight change during the sorption/desorption cycles were plotted, allowing for the hygroscopic nature of the sample to be determined.

[4] = 1-week stability tests (40° C./75% RH, 80° C., ambient light), XRPD and UPLC
Description: Compound 1 (Form I) was subjected to various different environmental conditions to assess stability.

[5] = Hydration screen in acetone/water mixtures; details: 24 hr
Experimental: Hydration screen was carried out as follows: 10 mg of prepared salts were suspended in several acetone/water mixtures of various water activities (low: aw=0.281, medium: aw=0.776 and high: aw=0.919) and agitated at ambient temperatures for 24 hr. Any recovered solids were submitted for XRPD analysis to determine any changes to form.

[6] = Thermodynamic solubility of prepared salts
Experimental: Thermodynamic solubility studies were carried out as follows: 10 mg of prepared salts were suspended in pH 1, 4.5, 6.8 and un-buffered water (300 μL). The pH of the slurries was measured and adjusted accordingly using either 0.2M HCl solution or 0.2M sodium hydroxide solution. The slurries were agitated for 24 hours at ambient temperature using an incubator shaker.

[7] = Salt disproportionation studies; details: deionized water, 24 h at ambient temperature
Experimental: Salt disproportionation studies were carried out as follows: 20 mg of prepared salts were weighed into a vial and 0.5 mL of deionized water was added. The samples were then agitated for 24 h at ambient temperature. The pH of the samples was taken pre- and post-agitation. Any solids recovered were submitted for XRPD analysis to determine any changes to form.

[8] = Approximate solvent solubility of amorphous Compound 1 free base by solvent addition (Example 1); details: for solubility: organic solvent or mixture, thermodynamic from solid, read-out: Approx. Solubility
Experimental: A solid Compound 1 was obtained as follows. A […] of solution containing about 330 mg of Compound 1 in warm 1,4-dioxane was divided between 33, 2 mL glass vials (1.5 mL in each). The solutions were frozen and freeze-dried by lyophilization overnight. The resulting material was then analyzed by XRPD to confirm mostly amorphous material.
Approximately 10 mg of amorphous Compound 1 was produced in 32×2 mL glass vials from freeze drying and 100 μL of the appropriate solvent system was added to the appropriate vial. Between each addition, the mixture was checked for dissolution and if no dissolution was apparent, the mixture was heated to about 40° C. and checked again. This procedure was continued until dissolution was observed or until 2 mL had been added (to the compound concentration of <5 mg/mL).

[9] = salt recovered from isopropanol

For `C[C@@H]1CCc2ncc(F)cc2[C@H]2CCCN2c2ccn3ncc(c3n2)C(=O)N1.O=C(O)/C=C/C(=O)O` [crystalline fumarate], the “Post-stability XRPD: changes to form or crystallinity” value (“Post-stability XRPD: changes” for short) ([1]; salt recovered from acetone) was “a slight decrease to crystallinity however, no change to form”.
For `C[C@@H]1CCc2ncc(F)cc2[C@H]2CCCN2c2ccn3ncc(c3n2)C(=O)N1.O=C(O)CCC(=O)O` [crystalline succinate], the “Post-stability XRPD: changes” value ([1]; salt recovered from acetone) was “a decrease in crystallinity but no change to form”.
With `C[C@@H]1CCc2ncc(F)cc2[C@H]2CCCN2c2ccn3ncc(c3n2)C(=O)N1` [Form I, (6R,15R)-9-fluoro-15-methyl-2,11,16,20,21,24-hexaazapentacyclo[16.5.2.0^2,6.0^7,12.0^21,25]pentacosa-1(24),7,9,11,18(25),19,22-heptaen-17-one] the “Hygroscopicity, mass uptake by DVS” value [2] was “about 0.7%” and the “Hygroscopicity, mass uptake by GVS” value ([3]; at 90% RH) was “about 0.3%”.
With `CS(=O)(=O)O.C[C@@H]1CCc2ncc(F)cc2[C@H]2CCCN2c2ccn3ncc(c3n2)C(=O)N1` [crystalline mesylate] the “Post-stability XRPD: changes” value ([1]; salt recovered from acetone) was “no changes to crystallinity or form”, the “Post-stability XRPD: changes” value [1, 9] was “a slight increase in crystallinity but no changes to form” and the “Post-stability XRPD: changes” value ([1]; salt recovered from methanol) was “a decrease in crystallinity but no changes to form”.
With `C[C@@H]1CCc2ncc(F)cc2[C@H]2CCCN2c2ccn3ncc(c3n2)C(=O)N1.O=C(O)CC(O)(CC(=O)O)C(=O)O` [Compound 1 citrate Form A] the “Post-stability XRPD: changes” value ([1]; salt recovered from TBME) was “a decrease to crystallinity but no change to form”, the “Post-stability XRPD: changes” value ([1]; salt recovered from acetone) was “a decrease to crystallinity but no change to form” and the “Hygroscopicity, mass uptake by DVS” value [2] was “around 1.8%”.
With `C[C@@H]1CCc2ncc(F)cc2[C@H]2CCCN2c2ccn3ncc(c3n2)C(=O)N1.O=S(=O)(O)c1ccccc1` [besylate pattern 1] the “Post-stability XRPD: changes” value ([1]; salt recovered from TBME) was “preferred orientation but no changes to form”, the “Post-stability XRPD: changes” value ([1]; salt recovered from THF) was “an increase to crystallinity but no changes to form” and the “Post-stability XRPD: changes” value ([1]; salt recovered from ethanol) was “a decrease in crystallinity”.
In the case of `C[C@@H]1CCc2ncc(F)cc2[C@H]2CCCN2c2ccn3ncc(c3n2)C(=O)N1.O=C(O)CC(O)(CC(=O)O)C(=O)O` [Compound 1 citrate], the “1-week stability test: change in purity (UPLC)” value ([4]; 40° C./75% RH) is reported as “no change to purity”, the “1-week stability test: change to form (XRPD)” value ([4]; 40° C./75% RH) is reported as “no change to form” and the “1-week stability test: change in purity (UPLC)” value ([4]; 80° C.) is reported as “no change to purity”. For the same molecule, the “1-week stability test: change to form (XRPD)” value ([4]; 80° C.) was “no change to form”, the “1-week stability test: change in purity (UPLC)” value ([4]; ambient light) was “no change to purity” and the “1-week stability test: change to form (XRPD)” value ([4]; ambient light) was “no change to form”. For the same molecule, the “Hydration study: recovered solid by XRPD” value ([5]; high water activity (aw=0.919)) was “poorly crystalline citrate salt”, the “Hydration study: recovered solid by XRPD” value ([5]; low water activity (aw=0.281)) was “poorly crystalline citrate salt” and the “Hydration study: recovered solid by XRPD” value ([5]; medium water activity (aw=0.776)) was “unknown form”. For the same molecule, the “Solid recovered from thermodynamic solubility slurry (XRPD)” value (shortened to “Solid recovered”) ([6]; pH 1) was “poorly crystalline solids”, the “Thermodynamic solubility in words” value ([6]; pH 1) was “high solubility” and the “Solid recovered” value ([6]; pH 4.5) was “Compound 1 citrate”. For the same molecule, the “Thermodynamic solubility in words” value ([6]; pH 4.5) was “lower solubility”, the “Solid recovered” value ([6]; pH 6.8) was “poorly crystalline free base” and the “Thermodynamic solubility in words” value ([6]; pH 6.8) was “lower solubility”. The “Solid recovered” value ([6]; unbuffered water) was “Compound 1 citrate”, the “Thermodynamic solubility in words” value ([6]; unbuffered water) was “highly soluble” and the “Crystalline form by XRPD after exposure to DVS humidity conditions” value [2] was “no changes in crystalline form”. The “Salt disproportionation: recovered material by XRPD” value [7] was “poorly crystalline citrate salt”.
For `C[C@@H]1CCc2ncc(F)cc2[C@H]2CCCN2c2ccn3ncc(c3n2)C(=O)N1.Cc1ccc(S(=O)(=O)O)cc1`, the “Post-stability XRPD: changes” value ([1]; salt recovered from acetone) was “become amorphous”.
In the case of `C[C@@H]1CCc2ncc(F)cc2[C@H]2CCCN2c2ccn3ncc(c3n2)C(=O)N1` [edisylate], the “Post-stability XRPD: changes” value [1, 9] is reported as “become amorphous”.
For `C[C@@H]1CCc2ncc(F)cc2[C@H]2CCCN2c2ccn3ncc(c3n2)C(=O)N1.O=C(O)C[C@H](O)C(=O)O` [crystalline L-malate], the “Post-stability XRPD: changes” value ([1]; salt recovered from TBME) was “no change to crystallinity and form”.
For `C[C@@H]1CCc2ncc(F)cc2[C@H]2CCCN2c2ccn3ncc(c3n2)C(=O)N1` [Compound 1, (6R,15R)-9-fluoro-15-methyl-2,11,16,20,21,24-hexaazapentacyclo[16.5.2.0^2,6.0^7,12.0^21,25]pentacosa-1(24),7,9,11,18(25),19,22-heptaen-17-one], the “1-week stability test: change in purity (UPLC)” value ([4]; 40° C./75% RH) was “no change in purity”, the “1-week stability test: change to form (XRPD)” value ([4]; 40° C./75% RH) was “no change to form” and the “1-week stability test: change in purity (UPLC)” value ([4]; 80° C.) was “no change in purity”. For the same molecule, the “1-week stability test: change to form (XRPD)” value ([4]; 80° C.) was “no change to form”, the “Average purity after 1-week stability test (UPLC)” value ([4]; 80° C. test) was 99.3% and the “1-week stability test: change in purity (UPLC)” value ([4]; ambient light) was “no change in purity”. The “1-week stability test: change to form (XRPD)” value ([4]; ambient light) was “no change to form”, the Average purity after 1-week stability test (UPLC) ([4]; ambient light test) was 99.2% and the Average purity after 1-week stability test (UPLC) ([4]; relative humidity test (40° C./75% RH)) was 99.2%. For the same molecule, the “Hygroscopicity, mass uptake by DVS” value [2] was “about 0.7%”, the “Crystalline form by XRPD after exposure to DVS humidity conditions” value [2] was “no change in crystalline form” and the solubility ([8]; 1,2-Dimethoxyethane) was 8.3 mg/mL (≈ 21.8 mM). The solubility ([8]; 1,4-Dioxane) was 8.3 mg/mL (≈ 21.8 mM), the solubility ([8]; 1-butanol) was 17 mg/mL (≈ 44.7 mM) and the solubility ([8]; 2-Ethoxy ethanol) was 50 mg/mL (≈ 131 mM). For the same molecule, the solubility ([8]; 2-Propanol) was 14.3 mg/mL (≈ 37.6 mM), the solubility ([8]; 2-butanone) was 11.1 mg/mL (≈ 29.2 mM) and the solubility ([8]; Acetone) was 11.1 mg/mL (≈ 29.2 mM). It also gave a solubility ([8]; Acetonitrile) of 12.5 mg/mL (≈ 32.9 mM), a solubility ([8]; Dimethylsulfoxide) of 50 mg/mL (≈ 131 mM) and a solubility ([8]; Ethanol) of 20 mg/mL (≈ 52.6 mM). The solubility ([8]; Methanol) was 50 mg/mL (≈ 131 mM), the solubility ([8]; Methylisobutyl ketone) was 6.25 mg/mL (≈ 16.4 mM) and the solubility ([8]; Tetrahydrofuran, 40 °C) was 20 mg/mL (≈ 52.6 mM). For the same molecule, the solubility ([8]; anisole) was 11.1 mg/mL (≈ 29.2 mM), the “Solvent solubility in words” value ([8]; non-polar solvents such as toluene and 1,4-dioxane) was “low solubility” and the solubility ([8]; Diglyme (bis(2-methoxyethyl ether))) was 8.3 mg/mL (≈ 21.8 mM). The “Solvent solubility in words” value ([8]; polar aprotic solvents such as acetone, ethyl acetate and acetonitrile) was “medium solubility”, the “Solvent solubility in words” value ([8]; polar solvents such as DMSO, DMF and protic solvents such as methanol) was “high solubility” and the “Crystalline form by XRPD after exposure to GVS humidity conditions” value ([3]; post-GVS XRPD) was “no changes to form or crystallinity; also recorded: no changes in crystalline form”.
With `C[C@@H]1CCc2ncc(F)cc2[C@H]2CCCN2c2ccn3ncc(c3n2)C(=O)N1.O=C(O)C(=O)O` [oxalate] the “Post-stability XRPD: changes” value ([1]; salt recovered from ethanol) was “a change in crystallinity and form” and the “Post-stability XRPD: changes” value ([1]; salt recovered from methanol) was “no change to crystallinity however, changes to form were seen”.
